Measured values: ChEMBL document CHEMBL1130845, “Modulation of multidrug resistance by taxuspine C and other taxoids from Japanese yew” (Bioorg Med Chem Lett, 1998)
≈ marks a conversion by molar mass, not a printed value.

What was measured:
L1210 = assay: Cytotoxic activity was evaluated against murine Leukemia L1210 cells; assay type: functional, cell-based; conditions: Mus musculus
[1] = Cytotoxic activity was evaluated against Epidermoid Carcinoma KB cells; assay type: functional, cell-based; conditions: Homo sapiens
Mus musculus [2] = assay: Compound was evaluated for antitumor activity in P388/VCR-bearing mice at 200 mg/Kg; assay type: functional
Mus musculus [3] = assay: Compound was evaluated for antitumor activity in P388/VCR-bearing mice at 200 mg/kg in the presence of vincristine at 0.2 mg/kg; assay type: functional
Mus musculus [4] = assay: Compound was evaluated for antitumor activity in P388/VCR-bearing mice at 200 mg/kg as in the presence of vincristine at the 0.1 mg/kg; assay type: functional
Mus musculus [5] = assay: Compound was evaluated for antitumor activity in P388/VCR-bearing mice at 200 mg/Kg as in the presence of vincristine at 0.1 mg/kg; assay type: functional
Mus musculus [6] = assay: Compound was evaluated for antitumor activity in P388/VCR-bearing mice at 200 mg/kg in the presence of vincristine at 0.1 mg/kg; assay type: functional
[7] = Effect on cellular accumulation of Vincristine in multidrug resistant human ovarian cancer 2780AD cells was determined at a dose 10 ug/mL; assay type: functional, A2780 ADR
[8] = Effect on cellular accumulation of Vincristine in multidrug resistant human ovarian cancer 2780AD cells was determined in the presence at a dose 10 ug/mL of taxoids; assay type: functional, A2780 ADR
Mus musculus [9] = assay: Compound was evaluated for antitumor activity in P388/VCR-bearing mice at 0.2 mg/Kg in the presence of vincristine at 0.1 mg/kg as percent ratio of median survival time of treated mice to control mice; assay type: functional
Mus musculus [10] = assay: Compound was evaluated for antitumor activity in P388/VCR-bearing mice at 0.2 mg/Kg as the ratio of median survival time of treated mice to control mice; assay type: functional
Mus musculus [11] = assay: Compound was evaluated for antitumor activity in P388/VCR-bearing mice at 0.2 mg/Kg in the presence of vincristine at 0.1 mg/kg as range.; assay type: functional
Mus musculus [12] = assay: Compound was evaluated for antitumor activity in P388/VCR-bearing mice at 0.2 mg/Kg as in the presence of vincristine at 0.1 mg/kg as the ratio of median survival time of treated mice to control mice; assay type: functional
Mus musculus [13] = assay: Compound was evaluated for antitumor activity in P388/VCR-bearing mice at 0.2 mg/Kg as percent ratio of median survival time of treated mice to control mice; assay type: functional
Mus musculus [14] = assay: Compound was evaluated for antitumor activity in P388/VCR-bearing mice at 0.2 mg/Kg as range.; assay type: functional

`CC(=O)O[C@@]12CO[C@@H]1C[C@H](O)[C@@]1(C)C(=O)[C@H](OC(=O)CC(C)O)C3=C(C)[C@@H](OC(=O)[C@H](O)[C@@H](NC(=O)c4ccccc4)c4ccccc4)C[C@@](O)([C@@H](OC(=O)c4ccccc4)[C@H]21)C3(C)C` (some centres undefined) showed an IC50 (L1210) of 0.95 µg/mL (≈ 1.06 µM) and an IC50 [1] of 0.0025 µg/mL (≈ 0.00278 µM).
`C=C1[C@@H](O)CC[C@@]2(C)[C@@H](O)[C@H](OC(C)=O)C3=C(C)C(=O)C[C@@H]([C@@H](O)[C@H]12)C3(C)C` gave an IC50 (L1210) greater than 10 µg/mL and an IC50 [1] greater than 10 µg/mL.
`C=C1[C@@H](O)C[C@H](OC(C)=O)[C@@]2(C)[C@@H](OC(C)=O)[C@H](OC(C)=O)C3=C(C)[C@@H](O)C[C@@H]([C@@H](OC(C)=O)[C@H]12)C3(C)C` gave an IC50 (L1210) greater than 10 µg/mL and an IC50 [1] of 9.2 µg/mL (≈ 17.1 µM).
In the case of `CCCCCC(=O)N(C)[C@@H](c1ccccc1)[C@@H](O)C(=O)O[C@H]1C[C@@]2(O)[C@@H](OC(=O)c3ccccc3)[C@@H]3[C@]4(OC(C)=O)CO[C@@H]4C[C@H](O)[C@@]3(C)C(=O)[C@H](OC(C)=O)C(=C1C)C2(C)C`, the IC50 (L1210) is reported as 0.48 µg/mL (≈ 0.557 µM) and the IC50 [1] is reported as 0.17 µg/mL (≈ 0.197 µM).
Compound `C=C1[C@@H](OC(=O)/C=C/c2ccccc2)CC[C@@]2(C)[C@@H](OC(C)=O)[C@H](OC(C)=O)C3=C(C)[C@@H](OC(C)=O)C[C@@H]([C@@H](O)[C@H]12)C3(C)C` has an IC50 (L1210) of 5.8 µg/mL (≈ 9.53 µM) and an IC50 [1] of 9.2 µg/mL (≈ 15.1 µM).
Compound `C=C1[C@@H](OC(=O)/C=C/c2ccccc2)C[C@H](O)[C@@]2(C)[C@@H](O)[C@H](OC(C)=O)C3=C(C)C(=O)C[C@@H]([C@@H](O)[C@H]12)C3(C)C` has an IC50 (L1210) greater than 10 µg/mL and an IC50 [1] of 8.5 µg/mL (≈ 15.8 µM).
`C=C1[C@@H](O)CC[C@@]2(C)[C@@H](OC(C)=O)[C@H](O)C3=C(C)C(=O)C[C@@H]([C@@H](O)[C@H]12)C3(C)C` showed an IC50 (L1210) greater than 10 µg/mL and an IC50 [1] greater than 10 µg/mL.
For `C=C1C2[C@H](OC(C)=O)[C@@H]3CC(=O)[C@@H](C)C([C@@H](OC(C)=O)[C@H](OC(C)=O)[C@]2(C)CC[C@@H]1OC(=O)/C=C/c1ccccc1)C3(C)C` (some centres undefined), the T/C (Mus musculus [2]) was 138%, the “Median T/C” value (Mus musculus [3]) was 15.8 days and the Range (Mus musculus [3]) was 12 days. The T/C (Mus musculus [4]) was 105%, the IC50 (L1210) was 5.8 µg/mL (≈ 9.53 µM) and the Range (Mus musculus [5]) was 10 days. For the same compound, the “Median T/C” value (Mus musculus [6]) was 12 days and the IC50 [1] was greater than 10 µg/mL.
With `CC(=O)O[C@H]1C2=C(CO)[C@@H](O)CC[C@@]2(C)[C@@H](OC(C)=O)[C@H](OC(C)=O)[C@@]2(O)[C@H](C)C(=O)C[C@@H]1C2(C)C` the VCR accumulation [7] was 203, the IC50 (L1210) was greater than 10 µg/mL and the IC50 [1] was 2.6 µg/mL (≈ 5.09 µM).
With `CC(=O)O[C@H]1C(=O)[C@@]2(C)[C@H]([C@H](OC(=O)c3ccccc3)[C@]3(O)C[C@H](O)C(C)=C1C3(C)C)[C@]1(OC(C)=O)CO[C@@H]1C[C@@H]2O` [BACCATIN III] the VCR accumulation [8] was 84, the IC50 (L1210) was greater than 10 µg/mL and the IC50 [1] was 10 µg/mL (≈ 17 µM).
In the case of `CC(=O)O[C@H]1C(=O)[C@@]2(C)[C@H]([C@H](OC(=O)c3ccccc3)[C@]3(O)C[C@H](OC(=O)[C@H](O)[C@@H](NC(=O)c4ccccc4)c4ccccc4)C(C)=C1C3(C)C)[C@]1(OC(C)=O)CO[C@@H]1C[C@@H]2O` [PACLITAXEL], the IC50 (L1210) is reported as 0.33 µg/mL (≈ 0.386 µM).
In the case of `C=C1[C@@H](OC(=O)/C=C/c2ccccc2)C[C@H](OC(C)=O)[C@]2(C)[C@@H]1C[C@@H]1C[C@H](O)C(C)=C([C@@H](OC(C)=O)[C@@H]2OC(C)=O)C1(C)C` [TAXEZOPIDINE H], the IC50 (L1210) is reported as 6.2 µg/mL (≈ 10.2 µM) and the IC50 [1] is reported as greater than 10 µg/mL.
For `C=C1[C@@H](OC(=O)/C=C/c2ccccc2)CC[C@@]2(C)[C@@H](OC(C)=O)[C@H](OC(C)=O)[C@@]34[C@H](C)C(=O)C[C@@H]([C@@H](OC(C)=O)[C@@]132)C4(C)C` [TAXUSPINE C], the IC50 (L1210) was greater than 10 µg/mL and the IC50 [1] was greater than 10 µg/mL.
With `CC[C@]1(O)C[C@H]2CN(CCc3c([nH]c4ccccc34)[C@@](C(=O)OC)(c3cc4c(cc3OC)N(C=O)[C@H]3[C@@](O)(C(=O)OC)[C@H](OC(C)=O)[C@]5(CC)C=CCN6CC[C@]43[C@@H]65)C2)C1` [VINCRISTINE] the T/C (Mus musculus [9]) was 92%, the “Median T/C” value (Mus musculus [10]) was 12.6 days and the Range (Mus musculus [11]) was 10 days. The “Median T/C” value (Mus musculus [12]) was 10.6 days, the T/C (Mus musculus [13]) was 110% and the Range (Mus musculus [14]) was 10 days.
